Literature values as cited in patent publication US20230181564A1, “Potent Tetrahydroquinolone Eliminates Apicomplexan Parasites” (The University of Chicago, priority 2020, published 2023).

Tested on: P. berghei sporozoites
Details: doses between 1 and 20 mg/kg; not the prodrug; cited from earlier work

## COc1cc2[nH]c(C)c(-c3ccc(Oc4ccc(OC(F)(F)F)cc4)cc3)c(=O)c2cc1Cl [ELQ 300]
  Efficacy in the P. berghei in vivo model: not effective
